Values quoted from earlier work, collected in US20100196363A1, “CANCER TREATMENT COMBINATION THERAPY COMPRISING VINFLUNINE AND TRASTUZUMAB” (Pierre Fabre Medicament, priority 2007, published 2010).

Tested on: breast cancer
Conditions: vinflunine alone, same dosage, regimen and period; breast cancer patients

Structure (SMILES): CC[C@]12C=CCN3CC[C@@]4(c5cc([C@@]6(C(=O)OC)C[C@@H]7C[C@@H](C(C)(F)F)CN(Cc8c6[nH]c6ccccc86)C7)c(OC)cc5N(C)[C@H]4[C@@](O)(C(=O)OC)[C@@H]1OC(C)=O)[C@@H]32 [Vinflunine, 20′,20′difluoro-3′,4′-dihydrovinorelbine]
- Overall Response (RECIST): about 30%
